The conditions of data set [1]: for XRPD pattern of the solids following moisture sorption analysis: after moisture sorption analysis; for hygroscopicity (in words) / observation upon desorption: moisture sorption analysis; for observation upon desorption: desorption scan; for water adsorbed at 60% RH / water adsorbed at 90% RH: 25° C. As for the experimental part: Approximately 10 mg of the sample was analyzed in a Pyrex bulb. Each scan utilized a step size of 10% RH and a maximum equilibration time of four hours per point. The sample was dried for one hour at 80° C. following the desorption scan to obtain the dry sample weight and then it was analyzed by XRPD.

For data set [2] the following is noted: 88% RH; for Visual inspection (2 week): 2 weeks, inspected for deliquescence. The method, then: This solution results in 88% RH environment. After two weeks of storage the crystalline form was determined by XRPD and solid inspected for deliquescence.
For data set [3] the following is noted: ambient conditions.
The procedure of data set [4]: After one week of exposure, the samples were analyzed by XRPD to check for form conversion and HPLC analysis to check for potential degradation. […] Ambient • Detection: 248 nm • Diluent: MeOH • Injection Volume: 5 μl
For data set [5] the following is noted: ambient. An excerpt: Following one week intervals, samples were isolated by centrifugation and dried in vacuo at ambient temperature overnight and analyzed by XRPD to check for polymorphic form conversion.
Data set [6] can be described thus: Competitive slurries of brimonidine hemi-pamoate forms. It counts as physicochemical. The conditions noted are these: for XRPD (1 week): form: competitive slurry of Forms A, RT; for relative stability (conclusion from competitive slurries): competitive slurries in THF or water, one week.
The conditions of data set [7]: cited from earlier work.
[8] abbreviates: stored uncapped at 60° C., 1 week.
The mark [9] stands for this setting: 60° C., sample exposed for 6 days (footnote).

Read-outs that look alike come from different tables or passages of the source.

Turning to `Brc1c(NC2=NCCN2)ccc2nccnc12.Brc1c(NC2=NCCN2)ccc2nccnc12.O=C(O)c1cc2ccccc2c(Cc2c(O)c(C(=O)O)cc3ccccc23)c1O` [Form A, brimonidine hemi-pamoate], in data set [1], the “XRPD pattern of the solids following moisture sorption analysis” value (“XRPD pattern” below) is “consistent with the Form A starting material”, the “hygroscopicity (in words)” value is listed as “slightly hygroscopic” and the observation upon desorption entry is reported as “no hysteresis or indication of hydrate formation”. In data set [1] (moisture sorption), the “water adsorbed at 60% RH” value came out at 2.2 wt % and the “water adsorbed at 90% RH” value stood at 2.5 wt %. Further, in data set [2], the “Visual inspection (2 week)” value was “No deli-” and the “stability after two weeks of storage at elevated relative humidity (in words)” value is on record as “no sign of deliquescence or change in crystalline form”. Besides, the “form by XRPD after overnight slurry in water” value (from here on “form by XRPD … in water”) in data set [3] was “Form B”. In data set [4] (60° C., one week), the “solid state stability after one week of storage at 60° C. (in words, HPLC and XRPD)” value (from here on “solid state stability after one week”) is “stable by XRPD and HPLC”. Besides, in data set [4] (setting [8]), the “HPLC (% purity) after thermal stress” value is given as 100.0%, the “XRPD (1 week): crystallinity” value was “Crystalline” and the “XRPD (1 week): form” value is reported as “(Form A)”. The “Form by XRPD (1 week)” value in data set [5] (slurry in THF 1 mL, 1 week) is listed as “Form E”. Moreover, in data set [5] (slurry in water (magnetic stirring) 1 mL, 3 weeks), the “Form by XRPD (3 weeks)” value is “Form B”. In addition, the “XRPD (1 week): form” value in data set [6] (B, C and D in THF (1.0 mL)) was “Form E”. Moreover, the “XRPD (1 week): form” value in data set [6] (C, D and E in water (1.0 mL)) is listed as “Form F”.
Consider `Brc1c(NC2=NCCN2)ccc2nccnc12.Brc1c(NC2=NCCN2)ccc2nccnc12.O=C(O)c1cc2ccccc2c(Cc2c(O)c(C(=O)O)cc3ccccc23)c1O` [Form B, brimonidine hemi-pamoate], for which, in data set [1], the “water content stabilized between 20-90% RH” value is reported as 5-6 wt % and the “XRPD pattern” value was “consistent with Form B”. In addition, in data set [1] (moisture sorption), the “water adsorbed at 60% RH” value was 5.4 wt % and the “water adsorbed at 90% RH” value turned out to be 5.8 wt %. Moreover, the “solid state stability after one week” value in data set [4] is on record as “no degradation or signs of form conversion”. In data set [4] (setting [8]), the “HPLC (% purity) after thermal stress” value was found to be 100.0%, the “XRPD (1 week): crystallinity” value is recorded as “Crystalline” and the “XRPD (1 week): form” value is “(Form B)”. Moreover, the “XRPD (1 week): form” value in data set [6] (B, C and D in THF (1.0 mL)) is “Form E”.
`Brc1c(NC2=NCCN2)ccc2nccnc12.Brc1c(NC2=NCCN2)ccc2nccnc12.O=C(O)c1cc2ccccc2c(Cc2c(O)c(C(=O)O)cc3ccccc23)c1O` [Form C, brimonidine hemi-pamoate]: in data set [1], the “XRPD pattern” value was “consistent with Form C”, the “hygroscopicity (in words)” value is “moderately hygroscopic” and the observation upon desorption entry is “no hysteresis or indication of hydrate formation”. Besides, in data set [1] (moisture sorption), the “water adsorbed at 60% RH” value was 4.6 wt % and the “water adsorbed at 90% RH” value is reported as 13.0 wt %. Moreover, the “Visual inspection (2 week)” value in data set [2] was “No deli-”. In addition, the “form by XRPD … in water” value in data set [3] was “mixture of Forms B and F”. In data set [4] (60° C., one week), the “solid state stability after one week” value is on record as “no significant degradation or signs of form conversion”. Besides, in data set [4] (setting [8]), the “HPLC (% purity) after thermal stress” value was 97.9%, the “XRPD (1 week): crystallinity” value is “Semi-cryst” and the “XRPD (1 week): form” value is recorded as “(Form C)”. In addition, the “XRPD (1 week): form” value in data set [6] (B, C and D in THF (1.0 mL)) is on record as “Form E”. In addition, the “XRPD (1 week): form” value in data set [6] (C, D and E in water (1.0 mL)) is “Form F”.
`Brc1c(NC2=NCCN2)ccc2nccnc12.Brc1c(NC2=NCCN2)ccc2nccnc12.O=C(O)c1cc2ccccc2c(Cc2c(O)c(C(=O)O)cc3ccccc23)c1O` [Form D, brimonidine hemi-pamoate]: in data set [1], the “XRPD pattern” value is “consistent with Form D”, the “hygroscopicity (in words)” value is “slightly hygroscopic” and the observation upon desorption entry is “no hysteresis or indication of hydrate formation”. Further, in data set [1] (moisture sorption), the “water adsorbed at 60% RH” value is reported as 1.8 wt % and the “water adsorbed at 90% RH” value is 2.6 wt %. The “form by XRPD … in water” value in data set [3] is “mixture of Forms B and F”. The “solid state stability after one week” value in data set [4] (60° C., one week) is “no significant degradation or signs of form conversion”. In data set [4] (setting [8]), the “HPLC (% purity) after thermal stress” value turned out to be 96.7%, the “XRPD (1 week): crystallinity” value is on record as “Crystalline” and the “XRPD (1 week): form” value is given as “(Form D)”. Also, the “XRPD (1 week): form” value in data set [6] (B, C and D in THF (1.0 mL)) is reported as “Form E”. Moreover, in data set [6] (C, D and E in water (1.0 mL)), the “XRPD (1 week): form” value is listed as “Form F”.
As for `Brc1c(NC2=NCCN2)ccc2nccnc12.Brc1c(NC2=NCCN2)ccc2nccnc12.O=C(O)c1cc2ccccc2c(Cc2c(O)c(C(=O)O)cc3ccccc23)c1O` [Form E, brimonidine hemi-pamoate], in data set [1], the “XRPD pattern” value is recorded as “consistent with Form E”, the “hygroscopicity (in words)” value is listed as “slightly hygroscopic” and the observation upon desorption entry is listed as “no hysteresis or indication of hydrate formation”. In data set [1] (moisture sorption), the “water adsorbed at 60% RH” value was 3.1 wt % and the “water adsorbed at 90% RH” value was 4.2 wt %. Also, the “form by XRPD … in water” value in data set [3] was “mixture of Forms B and F”. Moreover, the “solid state stability after one week” value in data set [4] (60° C., one week) is on record as “no significant degradation or signs of form conversion”. Also, in data set [4] (setting [9]), the “HPLC (% purity) after thermal stress” value is 100.0%, the “XRPD (1 week): crystallinity” value is given as “Semi-cryst” and the “XRPD (1 week): form” value is “(Form E)”. Also, the “relative stability (conclusion from competitive slurries)” value in data set [6] is “most stable anhydrate form”. Also, the “XRPD (1 week): form” value in data set [6] (C, D and E in water (1.0 mL)) is listed as “Form F”.
For the compound `Brc1c(NC2=NCCN2)ccc2nccnc12.Brc1c(NC2=NCCN2)ccc2nccnc12.O=C(O)c1cc2ccccc2c(Cc2c(O)c(C(=O)O)cc3ccccc23)c1O` [Form F, brimonidine hemi-pamoate], in data set [1], the “XRPD pattern” value is “consistent with Form F”. Besides, the “water adsorbed at 40% RH” value in data set [1] (moisture sorption, 40% RH) is “approximately 1.8 molar equivalent”. Also, in data set [2], the “Visual inspection (2 week)” value is on record as “No deli-” and the “stability after two weeks of storage at elevated relative humidity (in words)” value was “no sign of deliquescence or change in crystalline form”. The “form by XRPD … in water” value in data set [3] was “mixture of Forms B and F”. Besides, the “relative stability (conclusion from competitive slurries)” value in data set [6] was “more stable in water than Forms A, C, D and E”.
As to `Brc1c(NC2=NCCN2)ccc2nccnc12` [brimonidine freebase, 5-bromo-6-(2-imidazolidinylideneamino)quinoxaline], the “solubility in water (in words)” value in data set [7] (water) is given as “negligible”.
As for brimonidine tartrate, the “solubility in a pH 7.0 phosphate buffer” value in data set [7] (pH 7.0 phosphate buffer) is on record as 2.4 mg/mL. Also, the solubility in water in data set [7] (water) was 34 mg/mL.
